Drawing on PubChem BioAssay (NCI), this text covers TGI for three compounds.

Test systems include BT-549 breast; HCC-2998 colon; HCT-116 colon; HS 578T breast; IGROV1 ovarian; M14 melanoma; MDA-MB-231 breast; MDA-MB-435; NCI-H23 lung; NCI-H460 lung; NCI-H522 lung; OVCAR-3 ovarian; OVCAR-4 ovarian; SK-MEL-5 melanoma; SN12C renal; SNB-19 CNS; SR leukemia; SW-620 colon; U251 CNS; UACC-257 melanoma.
Holding throughout (test): growth of human tumour cells (NCI), 48 h

SMILES strings stand for the structures.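 48-hour exposure; five concentrations; linearly interpolated endpoints. Definition used: TGI = concentration required for complete inhibition of growth.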 A value given as a limit tells only on which side of the number the result lay.

On to `CC1(C)N([O-])[N+](=O)C1(C)O` (stereo not given), for which the TGI with BT-549 breast, with HCC-2998 colon, in the experiment on HCT-116 colon, in the experiment on HS 578T breast, in the experiment on IGROV1 ovarian and in the experiment with M14 melanoma was greater than 100 µM each time. The TGI with MDA-MB-231 breast, with MDA-MB-435, in the experiment on NCI-H23 lung, in the experiment on NCI-H460 lung, with NCI-H522 lung and in the experiment on OVCAR-3 ovarian was greater than 100 µM throughout. In addition, the TGI in the experiment on OVCAR-4 ovarian, in the experiment with SK-MEL-5 melanoma, with SN12C renal, with SNB-19 CNS, in the experiment on SR leukemia and in the experiment with SW-620 colon was greater than 100 µM each time. For the same compound, the TGI in the experiment with U251 CNS and in the experiment on UACC-257 melanoma was greater than 100 µM throughout.
Consider `C[C@@H]1CC[C@@]2(C)[C@H](C)/C(=C\COC(=O)/C=C/c3ccc(O)c(O)c3)CC[C@@]12C`, for which the TGI in the experiment on BT-549 breast came to 29 µM; in the experiment with HCC-2998 colon, 20 µM; with HCT-116 colon, 14 µM; in the experiment on HS 578T breast it was 32.8 µM; in the experiment on IGROV1 ovarian, 22.6 µM; with M14 melanoma, 26.1 µM. For the same compound, the TGI was found to be 20.5 µM in the experiment on MDA-MB-231 breast; 11.6 µM with MDA-MB-435; 23.1 µM in the experiment on NCI-H23 lung; 13.5 µM with NCI-H460 lung; 3.12 µM with NCI-H522 lung; 21.6 µM in the experiment with OVCAR-3 ovarian. For the same compound, the TGI was 19 µM with OVCAR-4 ovarian; 17 µM in the experiment with SK-MEL-5 melanoma; 17.1 µM in the experiment with SN12C renal; 27.8 µM in the experiment with SNB-19 CNS; 6.93 µM in the experiment on SR leukemia; 23.6 µM in the experiment with SW-620 colon. Further, the TGI with U251 CNS turned out to be 17.8 µM; with UACC-257 melanoma, 24.1 µM.
Consider `Cc1cc(=O)oc2c(C)c3oc(CBr)cc3cc12`, for which the TGI was 33.5 µM in the experiment on BT-549 breast; 31.9 µM in the experiment with HCC-2998 colon; 39.4 µM in the experiment with HCT-116 colon; greater than 100 µM with HS 578T breast; 33.3 µM in the experiment on IGROV1 ovarian; 34.8 µM in the experiment with M14 melanoma. In addition, the TGI was 84.7 µM with MDA-MB-231 breast; 37.7 µM in the experiment on MDA-MB-435; 40 µM in the experiment with NCI-H23 lung; 36.4 µM with NCI-H460 lung; 30.1 µM with NCI-H522 lung; greater than 100 µM in the experiment on OVCAR-3 ovarian. The TGI with OVCAR-4 ovarian was 65.1 µM; with SK-MEL-5 melanoma, 26 µM; in the experiment with SN12C renal it was 42.2 µM; in the experiment on SNB-19 CNS it was greater than 100 µM; in the experiment on SR leukemia it was greater than 100 µM; with SW-620 colon it was 30.2 µM. For the same compound, the TGI worked out at 47.1 µM with U251 CNS and 52.5 µM with UACC-257 melanoma.
